The term IC50 denotes the point on the concentration scale where inhibition reaches its midpoint. Low values mean higher potency, high ones lower potency.

The first test deals with T1, Substance-P receptor (Homo sapiens, UniProt P25103). Nature of the test: Binding affinity towards Neurokinin -1(NK-1) receptor of human by using [125I]- Tyr8 substance P as a radioligand in CHO cells. The format is cell-based.
T1 sequence (P25103 whole entry): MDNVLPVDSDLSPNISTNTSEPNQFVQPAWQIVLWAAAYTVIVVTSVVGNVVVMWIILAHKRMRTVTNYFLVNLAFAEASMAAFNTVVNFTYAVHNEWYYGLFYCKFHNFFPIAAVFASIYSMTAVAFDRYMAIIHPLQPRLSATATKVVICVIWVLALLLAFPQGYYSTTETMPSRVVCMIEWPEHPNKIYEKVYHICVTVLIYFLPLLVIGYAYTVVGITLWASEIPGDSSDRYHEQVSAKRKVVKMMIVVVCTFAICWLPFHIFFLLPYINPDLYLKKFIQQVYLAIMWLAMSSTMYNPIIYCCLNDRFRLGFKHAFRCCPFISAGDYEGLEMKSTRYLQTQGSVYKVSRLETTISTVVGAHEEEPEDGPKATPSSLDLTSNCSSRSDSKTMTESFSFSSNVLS
Conditions: not given
Regarding `NC(=O)C[C@@H]1CCC[C@@H](OCc2cc(C(F)(F)F)cc(C(F)(F)F)c2)[C@H]1c1ccccc1`, the IC50 is at least 157 nM. Compound `NC(=O)C[C@H]1CCC[C@H](OCc2cc(C(F)(F)F)cc(C(F)(F)F)c2)[C@@H]1c1ccccc1` (stereo in doubt; 22) came in with an IC50 of 1.5 nM. With `FC(F)(F)c1cc(CO[C@H]2CCCC[C@H]2c2ccccc2)cc(C(F)(F)F)c1`, the IC50 was 2630 nM. This IC50 lies about 1800-fold higher than the previous one. `CN1CCC[C@H](OCc2cc(C(F)(F)F)cc(C(F)(F)F)c2)[C@@H]1c1ccccc1` showed an IC50 of 14 nM. Compared with the last compound, the IC50 is about 190-fold lower. `O=C(C[C@H]1CCC[C@H](OCc2cc(C(F)(F)F)cc(C(F)(F)F)c2)[C@@H]1c1ccccc1)NCc1cccnc1` returned an IC50 of 3.7 nM. This IC50 lies about 3.8-fold lower than the previous one. Same read-out and setting: for `FC(F)(F)c1cc(CO[C@H]2CCCO[C@H]2c2ccccc2)cc(C(F)(F)F)c1` the value was 881 nM; for `NC(=O)NC[C@H]1CCC[C@H](OCc2cc(C(F)(F)F)cc(C(F)(F)F)c2)[C@@H]1c1ccccc1`, 6.7 nM. In turn, `O=C(C[C@H]1CCC[C@H](OCc2cc(C(F)(F)F)cc(C(F)(F)F)c2)[C@@H]1c1ccccc1)NCc1ccncc1` displayed an IC50 of 7 nM. The compound `NC(=O)C[C@H]1CCC[C@H](OCc2cc(C(F)(F)F)cc(C(F)(F)F)c2)[C@@H]1c1ccccc1` (stereo in doubt; 19a) displayed an IC50 of 3 nM. In turn, `O=C(NCc1cccnc1)NC[C@H]1CCC[C@H](OCc2cc(C(F)(F)F)cc(C(F)(F)F)c2)[C@@H]1c1ccccc1` showed an IC50 of 34 nM. The compound `OC(COCc1cc(C(F)(F)F)cc(C(F)(F)F)c1)C(c1ccccc1)c1ccccc1` (configuration not stated) displayed an IC50 of 17 nM.

The target in the next test is T1, Substance-P receptor. As to conditions: CHO.
Description: Dissociation constant towards Neurokinin -1(NK-1) receptor of human by using [125I]- Tyr8 substance P as a radioligand in CHO cells
In turn, `FC(F)(F)c1cc(CO[C@H]2CCCN[C@H]2c2ccccc2)cc(C(F)(F)F)c1` returned a pKa of 8.3.

Source of the values: ChEMBL document CHEMBL1128752, “1,2,3-Trisubstituted cyclohexyl substance P antagonists: significance of the ring nitrogen in piperidine-based NK-1 receptor antagonists” (Bioorg Med Chem Lett, 1995).
